Test results reported in publication PMC3934894, “Inhibition of Human and Yeast 20S Proteasome by Analogues of Trypsin Inhibitor SFTI-1” (PLoS ONE, 2014).
“And” between values parts separate entries of the source, which are not always exact repeats. Equal entries are not always repeated. Where two headings read alike, the source gives them in different places. Peptide text beside a SMILES is read from it. * marks the point of attachment. Cbz = O=C(OCc1ccccc1)*

Tests used:
[1] = biological target: T1, human 20S proteasome, chymotrypsin-like (ChT-L) activity (Homo sapiens, UniProt P28074)
Experimental: (§1) An assay buffer was composed of 50 mM Tris-HCl (pH 8.1) and 0.02% (w/v) SDS (exceptionally, T-L activity was measured in Tris buffer without SDS, that may trigger precipitation of substrates containing the guanidino group [21]). […] The SFTI-1 analogues were incubated with 20S proteasome in assay buffer at 37°C for 30 min. Reactions were performed in 96-well black BRAND plates (Germany). The final volume of the solution in each well was 200 µL. […] Proteasomal subsite activities were determined by monitoring the AMC liberation over time with a Fluorostar Omega (BMG Labtech, Germany) using excitation and emission wavelengths of 380 nm and 450 nm, respectively. […] Association constants Ka were measured as described previously [14] and calculated using a two-parameter fit model (using the GraFit software package).

[2] = biological target: human 20S proteasome, trypsin-like (T-L) activity (Homo sapiens, UniProt Q99436); test: T-L activity of latent human 20S proteasome (Z-LLR-AMC, no SDS); conditions: for IC50: T-like Human 20S IC50, latent human 20S, Tris buffer without SDS, pH 8.1, 37°C, Z-LLR-AMC 52 µM
Experimental: (§2) The peptidase activities of 20S proteasome were assayed using fluorogenic tri- and tetra-peptides coupled at their C-termini with 7-amino-4-methylcoumarin group (AMC). The initial concentration of purified yeast 20S proteasome [E0] […] An assay buffer was composed of 50 mM Tris-HCl (pH 8.1) and 0.02% (w/v) SDS (exceptionally, T-L activity was measured in Tris buffer without SDS, that may trigger precipitation of substrates containing the guanidino group [21]). […] The SFTI-1 analogues were incubated with 20S proteasome in assay buffer at 37°C for 30 min. Reactions were performed in 96-well black BRAND plates (Germany). The final volume of the solution in each well was 200 µL. […] Proteasomal subsite activities were determined by monitoring the AMC liberation over time with a Fluorostar Omega (BMG Labtech, Germany) using excitation and emission wavelengths of 380 nm and 450 nm, respectively.

[3] = biological target: human 20S proteasome, caspase-like (C-L) activity (Homo sapiens, UniProt P28072); test: C-L activity of SDS-activated human 20S proteasome (Z-LLE-AMC); conditions: for IC50: C-like Human 20S IC50, SDS-activated human 20S, pH 8.1, 37°C, Z-LLE-AMC 79 µM
Experimental: as §1

[4] = test system: rat and porcine 20S proteasomes, C-L site; design: method as in PMID 19054805; conditions: cited from earlier work
[5] = test system: rat and porcine 20S proteasomes, ChT-L; design: method as in PMID 19054805; conditions: cited from earlier work
[6] = test system: rat and porcine 20S proteasomes, T-L; design: method as in PMID 19054805; conditions: cited from earlier work
porcine 20S C–L activity = test system: porcine 20S C–L activity; design: method as in PMID 19054805; conditions: cited from earlier work
20S proteasome = test system: 20S proteasome; design: method as in PMID 10805568; conditions: ChT-L, T-L and C-L; cited from earlier work
[7] = biological target: yeast 20S proteasome, chymotrypsin-like (ChT-L) activity (Saccharomyces cerevisiae, UniProt P30656); test: ChT-L activity of SDS-activated yeast 20S proteasome (Suc-LLVY-AMC)
Experimental: as §2

[8] = biological target: T1, human 20S proteasome, chymotrypsin-like (ChT-L) activity; test: biochemical; conditions: for IC50: ChT-like Human 20S IC50, SDS-activated human 20S, [E] 2.7 nM, pH 8.1, 37°C, Suc-LLVY-AMC 52 µM
Experimental: as §1

[9] = ChT-like Yeast 20S IC50, SDS-activated yeast 20S, [E] 0.9 nM, pH 8.1, 37°C, 30 min incubation, Suc-LLVY-AMC 5.2 µM

| IC50 [7] | Compound | IC50 [2] | IC50 [3] | Ki [8] | IC50 [8] | IC50 [7, 9] | further results |
| --- | --- | --- | --- | --- | --- | --- | --- |
| – | bovine pancreatic trypsin inhibitor [BPTI] | – | – | – | – | – | inhibition of ChT-L activity at 4 µM ([1]; SDS-activated human 20S, 4 µM inhibitor): 60%; inhibition of the ChT-L site at ten-fold higher concentration ([1]; SDS-activated human 20S, ten-fold higher than 4 µM, data not shown): 80%; reduction of T-L activity at around 40 µM ([2]; latent human 20S, around 40 µM): 60%; effect on C-L activity at concentrations lower than 1 µM ([3]; SDS-activated human 20S): reduced the C-L activity significantly; maximal inhibition of C-L activity ([3]; SDS-activated human 20S, even at 12 µM, data not shown): ≤ 80%; IC50 [4]: 0.53 µM; IC50 [5]: 0.42 µM; Ki ([5]; competitive, read-out: inhibition constant Ki, ChT-L): 2 µM; IC50 [6]: 0.79 µM; inhibition of porcine 20S C–L activity at 2 µM (porcine 20S C–L activity): 86% |
| – | C/C=C\NC(=O)[C@H]1NC(=O)[C@H](CC(N)=O)NC(=O)[C@@H](NC(=O)C(=O)[C@H](C)CC)Cc2ccc(O)c(c2)-c2cccc3c2NC(=O)[C@@]3(O)[C@@H]1O [TMC-95B] | – | – | – | – | – | reduction of 20S activities compared with TMC-95A (20S proteasome): to the same extent as TMC-95A |
| 6.6 µM | CC[C@H](C)[C@@H]1NC(=O)[C@@H]2CCCN2C(=O)[C@H](CCCCN)NC(=O)[C@H](CCCCN)NC(=O)[C@H](CO)NC(=O)[C@H](Cc2ccc(O)cc2)NC(=O)[C@H]([C@@H](C)O)NC(=O)[C@@H](NC(=O)[C@H](CCCNC(=N)N)NC(=O)CN)CSSC[C@@H](C(=O)N[C@@H](Cc2ccccc2)C(=O)N2CCC[C@H]2C(=O)N[C@@H](CC(=O)O)C(=O)O)NC1=O [Analogue VI] (HELM PEPTIDE1{G.R.C.T.Y.S.K.K.P.I.C.F.P.D}$PEPTIDE1,PEPTIDE1,3:R3-11:R3$$$V2.0) | 93.1 µM | 4.02 µM | 1.43 µM | – | – | – |
| 8.82 µM | CC[C@H](C)[C@@H]1NC(=O)[C@@H]2CCCN2C(=O)[C@H](CCCCN)NC(=O)[C@H](CCCCN)NC(=O)[C@H](CO)NC(=O)[C@H](C)NC(=O)[C@H]([C@@H](C)O)NC(=O)[C@@H](NC(=O)[C@H](CCCNC(=N)N)NC(=O)CN)CSSC[C@@H](C(=O)N[C@@H](Cc2ccccc2)C(=O)N2CCC[C@H]2C(=O)N[C@@H](CC(=O)O)C(=O)O)NC1=O [Analogue VIII] (HELM PEPTIDE1{G.R.C.T.A.S.K.K.P.I.C.F.P.D}$PEPTIDE1,PEPTIDE1,3:R3-11:R3$$$V2.0) | > 100 µM | 5.37 µM | 2.99 µM | 5.8 µM | – | – |
| – | C/C=C\NC(=O)[C@H]1NC(=O)[C@H](CC(N)=O)NC(=O)[C@@H](NC(=O)C(=O)[C@@H](C)CC)Cc2ccc(O)c(c2)-c2cccc3c2NC(=O)[C@@]3(O)[C@H]1O [TMC-95C] | – | – | – | – | – | times weaker than TMC-95A (20S proteasome): 20–150 times |
| – | CC[C@H](C)[C@@H]1NC(=O)[C@@H]2CCCN2C(=O)[C@H](CCCCN)NC(=O)[C@H](CC(C)C)NC(=O)[C@H](CO)NC(=O)[C@H](CCCCN)NC(=O)[C@H]([C@@H](C)O)NC(=O)[C@@H](NC(=O)[C@H](CCCNC(=N)N)NC(=O)CN)CSSC[C@@H](C(=O)N[C@@H](Cc2ccccc2)C(=O)N2CCC[C@H]2C(=O)N[C@@H](CC(=O)O)C(=O)O)NC1=O [Analogue II] (HELM PEPTIDE1{G.R.C.T.K.S.L.K.P.I.C.F.P.D}$PEPTIDE1,PEPTIDE1,3:R3-11:R3$$$V2.0) | > 100 µM | 6.74 µM | 1.23 µM | 2.66 µM | 2.15 µM | – |
| – | C/C=C\NC(=O)[C@H]1NC(=O)[C@H](CC(N)=O)NC(=O)[C@@H](NC(=O)C(=O)[C@H](C)CC)Cc2ccc(O)c(c2)-c2cccc3c2NC(=O)[C@@]3(O)[C@H]1O [TMC-95D] | – | – | – | – | – | times weaker than TMC-95A (20S proteasome): 20–150 times |
| – | CC[C@H](C)[C@@H]1NC(=O)[C@@H]2CCCN2C(=O)[C@H]([C@@H](C)CC)NC(=O)[C@H](CCCNC(=N)N)NC(=O)[C@H](CO)NC(=O)[C@H](CCCCN)NC(=O)[C@H]([C@@H](C)O)NC(=O)[C@@H](NC(=O)[C@H](CCCNC(=N)N)NC(=O)CN)CSSC[C@@H](C(=O)N[C@@H](Cc2ccccc2)C(=O)N2CCC[C@H]2C(=O)N[C@@H](CC(=O)O)C(=O)O)NC1=O [Analogue IV] (HELM PEPTIDE1{G.R.C.T.K.S.R.I.P.I.C.F.P.D}$PEPTIDE1,PEPTIDE1,3:R3-11:R3$$$V2.0) | 60.5 µM | 2.44 µM | 1.31 µM | 2.49 µM | 5.36 µM | – |
| – | CC[C@H](C)[C@@H]1NC(=O)[C@@H]2CCCN2C(=O)[C@H](C)NC(=O)[C@H](C)NC(=O)[C@H](CO)NC(=O)[C@H](CCCCN)NC(=O)[C@H]([C@@H](C)O)NC(=O)[C@@H](NC(=O)[C@H](CCCNC(=N)N)NC(=O)CN)CSSC[C@@H](C(=O)N[C@@H](Cc2ccccc2)C(=O)N2CCC[C@H]2C(=O)N[C@@H](CC(=O)O)C(=O)O)NC1=O [Analogue IX] (HELM PEPTIDE1{G.R.C.T.K.S.A.A.P.I.C.F.P.D}$PEPTIDE1,PEPTIDE1,3:R3-11:R3$$$V2.0) | 62.1 µM | > 100 µM | – | > 100 µM | > 100 µM | remaining activity at 100 µM ([7]; read-out: ChT-L activity remaining at about 100 µM): ≥ 70% |
| – | CC[C@H](C)[C@@H]1NC(=O)[C@@H]2CCCN2C(=O)[C@H](CCCCN)NC(=O)[C@H](CCCCN)NC(=O)[C@H](CO)NC(=O)[C@H](CCCCN)NC(=O)[C@H]([C@@H](C)O)NC(=O)[C@@H](NC(=O)[C@H](CCCNC(=N)N)NC(=O)CN)CSSC[C@@H](C(=O)N[C@@H](Cc2ccccc2)C(=O)N2CCC[C@H]2C(=O)N[C@@H](CC(=O)O)C(=O)O)NC1=O [Analogue X] (HELM PEPTIDE1{G.R.C.T.K.S.K.K.P.I.C.F.P.D}$PEPTIDE1,PEPTIDE1,3:R3-11:R3$$$V2.0) | 86.7 µM | 1.12 µM | 0.66 µM | ~1.28 µM and 1.28 µM | ~16.7 µM and 16.7 µM | – |
| 1.23 µM | CC[C@H](C)[C@@H]1NC(=O)[C@@H]2CCCN2C(=O)[C@H](CCCCN)NC(=O)[C@H](CCCCN)NC(=O)[C@H](CO)NC(=O)[C@H](CCCNC(=N)N)NC(=O)[C@H]([C@@H](C)O)NC(=O)[C@@H](NC(=O)[C@H](CCCNC(=N)N)NC(=O)CN)CSSC[C@@H](C(=O)N[C@@H](Cc2ccccc2)C(=O)N2CCC[C@H]2C(=O)N[C@@H](CC(=O)O)C(=O)O)NC1=O [Analogue V] (HELM PEPTIDE1{G.R.C.T.R.S.K.K.P.I.C.F.P.D}$PEPTIDE1,PEPTIDE1,3:R3-11:R3$$$V2.0) | 72.2 µM | 0.6 µM and 0.61 µM | 0.31 µM | 0.9 µM and 0.94 µM | – | times lower Ka than Z-LLL-CHO ([1]; human 20S ChT-L): about 6.5 times; Kd [8]: 1 µM |
| – | CC[C@H](C)[C@@H]1NC(=O)[C@@H]2CCCN2C(=O)[C@@H]2CCCN2C(=O)[C@H]([C@@H](C)CC)NC(=O)[C@H](CO)NC(=O)[C@H](CCCCN)NC(=O)[C@H]([C@@H](C)O)NC(=O)[C@@H](NC(=O)[C@H](CCCNC(=N)N)NC(=O)CN)CSSC[C@@H](C(=O)N[C@@H](Cc2ccccc2)C(=O)N2CCC[C@H]2C(=O)N[C@@H](CC(=O)O)C(=O)O)NC1=O [Analogue I] | > 100 µM | 58.2 µM | 27 µM | 51.6 µM | 52 µM | – |
| 1.07 µM | CC[C@H](C)[C@@H]1NC(=O)[C@@H]2CCCN2C(=O)[C@H](CCCCN)NC(=O)[C@H](CC(C)C)NC(=O)[C@H](CO)NC(=O)[C@H](CCCNC(=N)N)NC(=O)[C@H]([C@@H](C)O)NC(=O)[C@@H](NC(=O)[C@H](CCCNC(=N)N)NC(=O)CN)CSSC[C@@H](C(=O)N[C@@H](Cc2ccccc2)C(=O)N2CCC[C@H]2C(=O)N[C@@H](CC(=O)O)C(=O)O)NC1=O [Analogue III] (HELM PEPTIDE1{G.R.C.T.R.S.L.K.P.I.C.F.P.D}$PEPTIDE1,PEPTIDE1,3:R3-11:R3$$$V2.0) | > 100 µM | 2.42 µM | 1.76 µM | 3.36 µM | – | – |
| – | CC[C@H](C)[C@H](NC(=O)[C@H]([C@@H](C)CC)N(C)C(C)=O)C(=O)N[C@H](C(=O)N[C@@H](CC(C)C)C(=O)[C@@]1(C)CO1)[C@@H](C)O [epoxomicin] | – | – | – | – | – | IC50 [4]: 3.6 µM; IC50 [5]: 0.14 µM; IC50 [6]: 0.32 µM |

| Compound | IC50 [7] | IC50 [2] | IC50 [3] | Ki [8] | IC50 [8] | IC50 [7, 9] | further results |
| --- | --- | --- | --- | --- | --- | --- | --- |
| CC(C)C[C@@H](C=O)NC(=O)[C@H](CC(C)C)NC(=O)[C@H](CC(C)C)NC(=O)OCc1ccccc1 [Z-LLL-CHO, reference compound] (Cbz-Leu-Leu-Leu-aldehyde) | 0.26 µM | 48.2 µM | 5.62 µM | – | – | – | inhibition of ChT-L activity at 4 µM [1]: completely abolished; ChT-like Human 20S Ka×10^5 ([1]; pH 8.1): 65.4; IC50 [4]: 1.7 µM; IC50 [5]: 0.78 µM; IC50 [6]: 2.3 µM |
| CC[C@H](C)[C@@H]1NC(=O)[C@@H]2CCCN2C(=O)[C@H](CCCCN)NC(=O)[C@H](CCCCN)NC(=O)[C@H](CO)NC(=O)[C@H](Cc2ccccc2)NC(=O)[C@H]([C@@H](C)O)NC(=O)[C@@H](NC(=O)[C@H](CCCNC(=N)N)NC(=O)CN)CSSC[C@@H](C(=O)N[C@@H](Cc2ccccc2)C(=O)N2CCC[C@H]2C(=O)N[C@@H](CC(=O)O)C(=O)O)NC1=O [Analogue VII] (HELM PEPTIDE1{G.R.C.T.F.S.K.K.P.I.C.F.P.D}$PEPTIDE1,PEPTIDE1,3:R3-11:R3$$$V2.0) | 5.34 µM | 45.3 µM | 2.8 µM | 1.75 µM | 3.41 µM | – | – |
